Results: PubChem BioAssay (NCI)
Values joined by “and” are separate entries in the source; they are usually repeats but may differ in a detail not shown here. Equal values may be shown once.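 Values below derive from 48-hour exposures of cells grown in 96-well plates, with endpoints linearly interpolated between the two concentrations bracketing the appropriate inhibition level. GI50 is the concentration that inhibits growth by half. TGI denotes the concentration required for complete inhibition of growth.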

Experiments:
Experiment in all cases: NCI anticancer screen, dose series, 48 h
[1] = test system: EKVX NSCLC
[2] = test system: HCT-116 colon
[3] = test system: M14 melanoma
[4] = test system: SNB-19 CNS
[5] = test system: UACC-62 melanoma
[6] = test system: A498 renal
[7] = test system: K-562 leukemia
[8] = test system: MDA-MB-231 breast
[9] = test system: MOLT-4 leukemia
[10] = test system: MDA-N

Structure (SMILES) | GI50 [1] | TGI [1] | GI50 [2] | TGI [2] | GI50 [3] [µM] | TGI [3] [µM] | GI50 [4] [µM] | TGI [4] | GI50 [5] [µM] | TGI [5] | GI50 [6] [µM] | TGI [6] | GI50 [7] [µM] | TGI [7] | GI50 [8] [µM] | TGI [8] [µM] | GI50 [9] | TGI [9] | TGI [10] [µM]
N#C[S-].[Nd+3].c1ccc(-c2ccccn2)nc1.c1ccc(-c2ccccn2)nc1.c1ccc(-c2ccccn2)nc1 | 5.78 µM | > 100 µM | 8.4 µM | > 100 µM | 2.26 | 5.96 | 10.7 | > 100 µM | 5.26 | 28.2 µM | – | – | – | – | – | – | – | – | –
C#CC(F)(F)[C@]1(O)CC[C@H]2[C@@H]3CCC4=CC(=O)CCC4=C3[C@@H](c3ccc(C(C)=O)cc3)C[C@@]21C | – | – | 14.1 µM | 42.6 µM | 16.9 | > 84.9 | 28.4 | > 100 µM | 12.5 | 33.8 µM | 23.1 | 84.8 µM | 8.64 | > 100 µM | 15.7 | > 87.5 | 3.9 µM | 63.4 µM | –
O=S1(=O)c2ccccc2C(=NO)c2ccccc21 | – | > 100 µM | – | > 100 µM | – | > 100 | – | – | – | > 100 µM | – | > 100 µM | – | > 100 µM | – | > 100 | – | > 100 µM | > 100
c1ccc2c(c1)CCc1cc3cc4c(nc3nc1-2)-c1ccccc1CC4 | – | > 100 µM | – | > 100 µM | – | > 100 | – | > 100 µM | – | > 100 µM | – | – | – | > 100 µM | – | – | – | > 100 µM | –
O=C(NC1CCN(Cc2ccccc2)CC1)c1cc2nc(-c3ccc(Cl)s3)cc(C(F)(F)F)n2n1 | – | – | 4.84 µM | > 100 µM | – | – | > 100 | > 100 µM | – | – | – | – | 3.29 | > 100 µM | – | – | > 100 µM | > 100 µM | –
CC(C)c1ccc(/C=C2\CSCC3=C2NC(=S)NC3c2ccc(C(C)C)cc2)cc1 (centres undefined) | – | > 100 µM | – | > 100 µM | – | > 100 | – | > 100 µM | – | > 100 µM | – | – | – | > 100 µM | – | > 100 | – | > 100 µM | > 100
CCOC(=O)/C=C(\C(=O)OCC)n1ccc(N)nc1=O | – | > 100 µM | – | > 100 µM | – | > 100 | – | > 100 µM | – | > 100 µM | – | – | – | > 100 µM | – | > 100 | – | > 100 µM | > 100
O=c1[nH]c(=O)n(Cc2ccccc2CO)cc1Sc1ccccc1 | – | 60.8 µM | – | 64.7 µM | – | 41.2 | – | > 100 µM | – | > 100 µM | – | – | – | > 100 µM | – | 33.8 | – | > 100 µM | –
CCCCOP1(=O)C=C(C)C(=C(Cl)Cl)C(C)=C1 (centres undefined) | – | > 100 µM | – | 6.29 µM | – | 54.8 | – | > 77.9 µM | – | 21.8 µM | – | – | – | > 100 µM | – | – | – | > 48.2 µM | –
Oc1ccc(SCc2cc(O)c(O)c(O)c2)cc1 | – | > 100 µM | – | 34.2 µM | – | 33.1 | – | > 100 µM | – | 41.4 µM | – | > 100 µM | – | > 100 µM | – | > 100 | – | > 100 µM | –
CC(=O)OC(OC(C)=O)n1cc(C=O)c2ccccc21 | – | – | – | > 100 µM | – | > 100 | – | > 100 µM | – | – | – | > 100 µM | – | > 100 µM | – | > 100 | – | > 100 µM | –
CNC(=O)c1cc(NC(=O)N(CCC#N)CCN(C(=O)N[C@@H](Cc2ccccc2)C(=O)N[C@@H](CC(C)C)C(=O)NC)c2ccccc2)ccc1OC | – | > 100 µM | – | > 100 µM | – | > 100 | – | > 100 µM | – | > 55.4 µM | – | > 91.5 µM | – | – | – | > 60.3 | – | > 100 µM | > 100
NCCNc1cccc2ccccc12 | – | > 100 µM | – | > 100 µM | – | > 100 | – | > 100 µM | – | > 100 µM | – | > 100 µM | – | – | – | – | – | – | –
c1ccc2c(c1)nc(NC1CCCC1)c1[nH]c(C3CCCC3)nc12 | – | > 100 µM | – | 17.6 µM | – | 10 | – | > 100 µM | – | 29.8 µM | – | 43.1 µM | – | 41.4 µM | – | – | – | > 41.7 µM | –
O=C1C(Br)=CC2(C=C1Br)CCNC1=C2C(=O)c2cccnc2C1=O | – | 28.5 µM | – | 26.4 µM | – | 21.3 | – | 20 µM | – | 12.9 µM | – | – | – | 6.84 µM | – | 31.1 | – | 24.9 µM | 3.46
O=C1C=C(Br)c2c(Br)sc(Br)c21 | – | 37.3 µM | – | 30.4 µM | – | 15 | – | 35.7 µM | – | 29.2 µM | – | – | – | > 36.7 µM | – | 33.9 | – | 12.2 µM | > 52
O=C(CCCCCCCCC(=O)N1C(=O)CC(=O)N(c2cccc(Cl)c2)C1=S)N1C(=O)CC(=O)N(c2cccc(Cl)c2)C1=S | – | > 100 µM | – | > 100 µM | – | > 100 | – | > 100 µM | – | 84.3 µM | – | > 100 µM | – | – | – | 84.3 | – | 70.6 µM | > 100
COC(=O)/C=C/c1cc(O)c2c(c1)[C@H](C(=O)OC)[C@@H](c1ccc(O)c(O)c1)O2 | – | > 85 µM | – | > 72 µM | – | > 45.2 | – | – | – | > 59.5 µM | – | > 28 µM | – | – | 0.0497 | > 100 | – | > 45.7 µM | –
C=CCNC(=O)NC1=CSC2=NC(=O)C3(NN12)c1ccccc1-c1ccccc13 | – | > 10 µM | – | > 10 µM | – | > 10 | – | > 10 µM | – | > 10 µM | – | – | – | > 10 µM | – | > 10 | – | > 10 µM | –
NC(=O)C#CC(N)=O | 16.1 µM and 18.1 µM and > 100 µM | 29.7 µM and 35 µM and > 100 µM | 15.1 µM and 37.5 µM | 29.5 µM and > 100 µM | – | 37.5 | – | 241 µM and > 100 µM | – | 28.4 µM and 29.5 µM and 43 µM | 71 | 197 µM and 154 µM and > 100 µM | – | 15.1 µM and 96.6 µM and 24.3 µM | – | – | 3.31 µM and 14.2 µM | 18.6 µM and 37.5 µM | –
CC(CO)C1C[C@H](O)[C@@]2(C)CC(=O)C=C(CO)[C@@H]2C1 (some centres undefined) | – | > 100 µM | – | > 100 µM | – | > 100 | – | > 100 µM | – | > 100 µM | – | > 100 µM | – | – | – | > 100 | – | > 100 µM | > 100
Cc1cccc(NC(=O)C(=O)C(C(=O)c2ccccc2F)C2OC(=O)c3ccccc32)c1Cl (centres undefined) | – | > 100 µM | – | 45.3 µM | – | > 100 | – | > 100 µM | – | 85.4 µM | – | > 100 µM | – | > 100 µM | – | – | – | > 100 µM | –
